From paper PMC3914206

Experiments:
Test in all cases: KiNativ chemical proteomics profiling in HeLa and PC3 cell lysates
[1] = test system: selected panels of kinases in HeLa and PC3 cell lysates; assay type: binding, human; settings: 10 uM; for % Inhibition PI4KA,PI4KAP2: peptide SGTPMQSAAkAPYLAK, labeling site ATP; for % Inhibiton, MAP3K2,MAP3K3: peptide DIkGANILR; for % Inhibiton, IKKe,TBK1: peptide DIkPGNIMR; for % Inhibiton, JNK1,JNK2,JNK3: peptide DLkPSNIVVK; for % Inhibiton, MAP2K1,MAP2K2: peptide DVkPSNILVNSR
[2] = target: T1, selected panels of kinases in HeLa and PC3 cell lysates (Homo sapiens, UniProt Q16539); assay type: binding; settings: 10 uM
T1 construct: endogenous in cells; host or cells: HeLa and PC3 cell lysates

[3] = target: T2, selected panels of kinases in HeLa and PC3 cell lysates (Homo sapiens, UniProt Q9Y5S2); assay type: binding; settings: 10 uM, proteome PC3
T2 construct: endogenous in cells; host or cells: HeLa and PC3 cell lysates

[4] = target: T3, selected panels of kinases in HeLa and PC3 cell lysates (Homo sapiens, UniProt Q7KZI7); assay type: binding; settings: 10 uM; proteome PC3; peptide EVAVk[…]; labeling site Lys1
T3 construct: endogenous in cells; host or cells: HeLa and PC3 cell lysates

[5] = target: T4, selected panels of kinases in HeLa and PC3 cell lysates (Homo sapiens, UniProt O94804); assay type: binding; settings: 10 uM
T4 construct: endogenous in cells; host or cells: HeLa and PC3 cell lysates

[6] = target: T5, selected panels of kinases in HeLa and PC3 cell lysates (Homo sapiens, UniProt P52333); assay type: binding; settings: 10 uM; proteome HEL; peptide IADFGLAkLLPLDKDYYVVR; labeling site Activation Loop
T5 construct: endogenous in cells; host or cells: HeLa and PC3 cell lysates

[7] = target: T6, selected panels of kinases in HeLa and PC3 cell lysates (Homo sapiens, UniProt Q96S44); assay type: binding; settings: 10 uM, PRPK, peptide FLSGLELVkQGAEAR, labeling site ATP Loop
T6 construct: endogenous in cells; host or cells: HeLa and PC3 cell lysates
T6 sequence (Q96S44 1-253): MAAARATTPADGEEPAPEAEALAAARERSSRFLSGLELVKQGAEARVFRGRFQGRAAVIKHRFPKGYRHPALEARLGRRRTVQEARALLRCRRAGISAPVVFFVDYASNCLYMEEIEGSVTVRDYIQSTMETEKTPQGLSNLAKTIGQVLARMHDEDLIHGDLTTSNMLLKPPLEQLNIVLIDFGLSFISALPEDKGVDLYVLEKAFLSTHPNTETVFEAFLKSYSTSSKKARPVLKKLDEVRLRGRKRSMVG

[8] = target: T7, selected panels of kinases in HeLa and PC3 cell lysates (Homo sapiens, UniProt Q13043); assay type: binding; settings: 10 uM, peptide […]k[…], labeling site Lys1
T7 construct: endogenous in cells; host or cells: HeLa and PC3 cell lysates
T7 sequence (Q13043 1-487): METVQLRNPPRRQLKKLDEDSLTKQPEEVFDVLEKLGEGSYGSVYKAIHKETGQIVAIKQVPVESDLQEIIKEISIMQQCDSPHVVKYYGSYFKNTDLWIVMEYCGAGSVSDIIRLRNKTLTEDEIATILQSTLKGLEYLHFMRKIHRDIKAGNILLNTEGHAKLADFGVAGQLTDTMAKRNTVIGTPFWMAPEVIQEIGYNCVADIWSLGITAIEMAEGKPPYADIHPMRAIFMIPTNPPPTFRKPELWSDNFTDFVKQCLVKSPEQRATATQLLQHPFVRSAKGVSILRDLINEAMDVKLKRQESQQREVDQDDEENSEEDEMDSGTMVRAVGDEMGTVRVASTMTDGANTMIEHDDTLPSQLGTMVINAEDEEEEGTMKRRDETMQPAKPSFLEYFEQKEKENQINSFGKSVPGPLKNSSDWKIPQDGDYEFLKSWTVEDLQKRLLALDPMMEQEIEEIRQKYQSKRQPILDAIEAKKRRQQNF

[9] = target: T8, selected panels of kinases in HeLa and PC3 cell lysates (Homo sapiens, UniProt Q96GX5); assay type: binding; settings: 10 uM; proteome HEL; peptide LYAVkVVK; labeling site Lys1
T8 construct: endogenous in cells; host or cells: HeLa and PC3 cell lysates

[10] = target: T9, selected panels of kinases in HeLa and PC3 cell lysates (Homo sapiens, UniProt P07948); assay type: binding; settings: 10 uM; proteome HEL; peptide VAVk[…]; labeling site Lys1
T9 construct: endogenous in cells; host or cells: HeLa and PC3 cell lysates

[11] = target: T10, selected panels of kinases in HeLa and PC3 cell lysates (Homo sapiens, UniProt Q13555); assay type: binding; settings: 10 uM, peptide TSTQEYAAkIINTK, labeling site Lys1
T10 construct: endogenous in cells; host or cells: HeLa and PC3 cell lysates

[12] = target: T11, selected panels of kinases in HeLa and PC3 cell lysates (Homo sapiens, UniProt P21127); assay type: binding; settings: 10 uM; PITSLRE; peptide DLk[…]; proteome PC3; labeling site Lys2
T11 construct: endogenous in cells; host or cells: HeLa and PC3 cell lysates

[13] = target: T12, selected panels of kinases in HeLa and PC3 cell lysates (Homo sapiens, UniProt P30291); assay type: binding; settings: 10 uM; Wee1; peptide […]k[…]; proteome HEL; labeling site Lys2
T12 construct: endogenous in cells; host or cells: HeLa and PC3 cell lysates

[14] = peptide DIk[…], proteome HEL, labeling site Lys2
[15] = peptide DIk[…], proteome PC3, labeling site Lys2
[16] = proteome HEL, labeling site Lys2
[17] = proteome HEL, peptide DLk[…], labeling site Lys2
[18] = proteome PC3, labeling site Lys2
[19] = proteome PC3, peptide DIk[…], labeling site Lys2
[20] = proteome PC3, peptide DLk[…], labeling site Lys2

T1 sequence (Q16539 whole entry): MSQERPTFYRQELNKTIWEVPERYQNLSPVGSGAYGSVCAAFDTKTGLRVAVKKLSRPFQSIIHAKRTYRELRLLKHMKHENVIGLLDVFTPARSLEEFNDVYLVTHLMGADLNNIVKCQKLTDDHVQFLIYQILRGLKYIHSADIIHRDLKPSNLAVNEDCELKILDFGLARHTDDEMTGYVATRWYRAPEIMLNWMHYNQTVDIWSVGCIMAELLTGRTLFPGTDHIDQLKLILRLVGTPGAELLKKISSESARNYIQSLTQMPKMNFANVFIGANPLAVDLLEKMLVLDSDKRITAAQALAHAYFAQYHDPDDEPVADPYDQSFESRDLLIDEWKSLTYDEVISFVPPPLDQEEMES
T4 sequence (O94804 whole entry): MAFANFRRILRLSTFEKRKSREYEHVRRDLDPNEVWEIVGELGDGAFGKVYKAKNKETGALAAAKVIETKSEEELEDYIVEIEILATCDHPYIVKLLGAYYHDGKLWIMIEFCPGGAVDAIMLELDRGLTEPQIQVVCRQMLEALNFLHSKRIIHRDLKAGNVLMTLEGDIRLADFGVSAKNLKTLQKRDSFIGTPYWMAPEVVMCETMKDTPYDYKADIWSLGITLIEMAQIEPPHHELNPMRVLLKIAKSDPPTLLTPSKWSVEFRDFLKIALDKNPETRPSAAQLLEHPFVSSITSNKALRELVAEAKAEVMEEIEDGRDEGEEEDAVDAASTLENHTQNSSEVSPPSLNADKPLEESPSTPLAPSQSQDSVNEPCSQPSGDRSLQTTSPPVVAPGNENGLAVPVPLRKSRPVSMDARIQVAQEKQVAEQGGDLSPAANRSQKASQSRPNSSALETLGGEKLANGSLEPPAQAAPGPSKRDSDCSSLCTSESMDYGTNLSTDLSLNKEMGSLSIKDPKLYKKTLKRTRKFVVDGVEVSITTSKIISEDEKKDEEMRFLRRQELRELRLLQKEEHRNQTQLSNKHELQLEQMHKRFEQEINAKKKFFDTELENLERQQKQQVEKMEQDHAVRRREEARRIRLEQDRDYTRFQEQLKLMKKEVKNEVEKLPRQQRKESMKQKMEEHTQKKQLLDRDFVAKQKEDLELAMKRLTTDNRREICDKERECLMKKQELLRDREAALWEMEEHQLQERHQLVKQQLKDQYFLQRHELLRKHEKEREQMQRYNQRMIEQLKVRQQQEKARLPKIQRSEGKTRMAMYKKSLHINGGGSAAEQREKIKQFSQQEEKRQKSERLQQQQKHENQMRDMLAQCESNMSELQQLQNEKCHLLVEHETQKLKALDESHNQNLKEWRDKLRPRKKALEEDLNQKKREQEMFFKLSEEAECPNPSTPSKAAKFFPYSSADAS
T2 sequence (Q9Y5S2 whole entry): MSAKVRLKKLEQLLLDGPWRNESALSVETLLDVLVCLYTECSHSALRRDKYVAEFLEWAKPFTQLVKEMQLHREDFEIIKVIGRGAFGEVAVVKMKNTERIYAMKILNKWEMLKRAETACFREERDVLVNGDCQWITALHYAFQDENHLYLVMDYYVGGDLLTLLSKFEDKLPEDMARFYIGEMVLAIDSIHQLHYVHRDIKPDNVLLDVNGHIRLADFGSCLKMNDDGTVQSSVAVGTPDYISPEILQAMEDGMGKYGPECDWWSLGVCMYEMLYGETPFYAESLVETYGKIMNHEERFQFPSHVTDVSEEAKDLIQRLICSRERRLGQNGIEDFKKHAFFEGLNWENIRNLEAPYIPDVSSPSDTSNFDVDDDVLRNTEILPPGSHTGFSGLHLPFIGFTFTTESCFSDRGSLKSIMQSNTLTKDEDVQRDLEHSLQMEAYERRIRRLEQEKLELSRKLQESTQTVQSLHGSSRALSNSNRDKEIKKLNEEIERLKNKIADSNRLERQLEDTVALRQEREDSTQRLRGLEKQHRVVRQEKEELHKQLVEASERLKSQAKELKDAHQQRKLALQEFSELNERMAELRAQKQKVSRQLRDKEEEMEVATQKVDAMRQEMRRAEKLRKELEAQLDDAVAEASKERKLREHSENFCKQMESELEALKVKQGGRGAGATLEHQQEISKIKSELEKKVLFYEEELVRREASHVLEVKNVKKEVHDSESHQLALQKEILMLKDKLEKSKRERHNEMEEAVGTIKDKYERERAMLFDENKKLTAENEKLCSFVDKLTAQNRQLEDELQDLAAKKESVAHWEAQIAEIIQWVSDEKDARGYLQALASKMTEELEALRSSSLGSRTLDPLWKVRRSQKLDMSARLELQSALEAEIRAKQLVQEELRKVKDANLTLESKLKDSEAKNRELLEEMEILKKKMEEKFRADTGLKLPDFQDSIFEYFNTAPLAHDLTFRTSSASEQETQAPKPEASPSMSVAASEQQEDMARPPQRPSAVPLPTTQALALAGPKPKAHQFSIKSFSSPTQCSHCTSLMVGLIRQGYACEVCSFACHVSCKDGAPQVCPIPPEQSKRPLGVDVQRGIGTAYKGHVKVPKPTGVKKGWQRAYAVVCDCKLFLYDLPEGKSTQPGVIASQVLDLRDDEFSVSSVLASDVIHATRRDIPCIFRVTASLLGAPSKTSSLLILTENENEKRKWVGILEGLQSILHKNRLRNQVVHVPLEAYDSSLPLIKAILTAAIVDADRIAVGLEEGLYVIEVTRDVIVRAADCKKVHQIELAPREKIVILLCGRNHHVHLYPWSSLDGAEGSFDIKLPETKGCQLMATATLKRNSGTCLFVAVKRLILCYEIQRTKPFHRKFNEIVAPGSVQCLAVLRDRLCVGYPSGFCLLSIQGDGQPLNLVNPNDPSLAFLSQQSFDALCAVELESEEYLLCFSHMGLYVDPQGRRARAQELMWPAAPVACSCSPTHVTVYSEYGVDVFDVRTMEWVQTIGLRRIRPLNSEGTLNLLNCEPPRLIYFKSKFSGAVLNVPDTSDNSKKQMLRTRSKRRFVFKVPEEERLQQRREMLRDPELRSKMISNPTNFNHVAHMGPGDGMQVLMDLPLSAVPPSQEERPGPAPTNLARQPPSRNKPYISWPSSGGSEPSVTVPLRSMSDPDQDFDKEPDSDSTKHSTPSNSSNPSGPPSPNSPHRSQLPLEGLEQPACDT
T10 sequence (Q13555 whole entry): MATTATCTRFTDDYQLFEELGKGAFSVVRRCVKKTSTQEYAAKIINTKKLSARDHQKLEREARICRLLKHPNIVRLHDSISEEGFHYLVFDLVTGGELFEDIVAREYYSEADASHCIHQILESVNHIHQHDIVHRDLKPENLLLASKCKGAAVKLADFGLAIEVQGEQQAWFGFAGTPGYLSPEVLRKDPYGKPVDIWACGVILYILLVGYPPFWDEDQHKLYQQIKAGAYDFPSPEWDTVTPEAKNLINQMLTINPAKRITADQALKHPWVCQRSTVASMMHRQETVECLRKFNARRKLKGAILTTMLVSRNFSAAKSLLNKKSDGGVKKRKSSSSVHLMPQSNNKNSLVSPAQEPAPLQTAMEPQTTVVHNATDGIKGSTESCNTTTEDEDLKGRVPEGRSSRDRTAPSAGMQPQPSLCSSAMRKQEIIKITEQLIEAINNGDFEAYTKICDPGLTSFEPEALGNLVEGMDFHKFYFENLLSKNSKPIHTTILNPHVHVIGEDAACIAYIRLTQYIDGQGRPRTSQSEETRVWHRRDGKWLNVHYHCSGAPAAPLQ
T12 sequence (P30291 whole entry): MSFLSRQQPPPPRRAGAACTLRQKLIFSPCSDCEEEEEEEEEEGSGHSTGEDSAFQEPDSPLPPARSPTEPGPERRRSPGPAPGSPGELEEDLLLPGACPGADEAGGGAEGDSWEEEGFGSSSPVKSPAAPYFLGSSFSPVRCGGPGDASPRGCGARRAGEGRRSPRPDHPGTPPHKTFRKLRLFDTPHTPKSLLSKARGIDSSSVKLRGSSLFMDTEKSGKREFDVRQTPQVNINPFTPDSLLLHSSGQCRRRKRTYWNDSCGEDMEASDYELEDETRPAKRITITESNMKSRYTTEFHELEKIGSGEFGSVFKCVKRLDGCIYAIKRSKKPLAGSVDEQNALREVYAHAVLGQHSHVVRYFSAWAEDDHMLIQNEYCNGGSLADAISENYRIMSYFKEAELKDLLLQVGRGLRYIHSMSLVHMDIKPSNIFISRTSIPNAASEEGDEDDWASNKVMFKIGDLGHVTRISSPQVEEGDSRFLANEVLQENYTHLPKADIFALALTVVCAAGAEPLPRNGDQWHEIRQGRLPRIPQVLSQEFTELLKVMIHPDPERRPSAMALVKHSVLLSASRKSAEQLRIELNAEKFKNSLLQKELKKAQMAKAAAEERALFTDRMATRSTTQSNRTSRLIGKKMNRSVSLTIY
T11 sequence (P21127 whole entry): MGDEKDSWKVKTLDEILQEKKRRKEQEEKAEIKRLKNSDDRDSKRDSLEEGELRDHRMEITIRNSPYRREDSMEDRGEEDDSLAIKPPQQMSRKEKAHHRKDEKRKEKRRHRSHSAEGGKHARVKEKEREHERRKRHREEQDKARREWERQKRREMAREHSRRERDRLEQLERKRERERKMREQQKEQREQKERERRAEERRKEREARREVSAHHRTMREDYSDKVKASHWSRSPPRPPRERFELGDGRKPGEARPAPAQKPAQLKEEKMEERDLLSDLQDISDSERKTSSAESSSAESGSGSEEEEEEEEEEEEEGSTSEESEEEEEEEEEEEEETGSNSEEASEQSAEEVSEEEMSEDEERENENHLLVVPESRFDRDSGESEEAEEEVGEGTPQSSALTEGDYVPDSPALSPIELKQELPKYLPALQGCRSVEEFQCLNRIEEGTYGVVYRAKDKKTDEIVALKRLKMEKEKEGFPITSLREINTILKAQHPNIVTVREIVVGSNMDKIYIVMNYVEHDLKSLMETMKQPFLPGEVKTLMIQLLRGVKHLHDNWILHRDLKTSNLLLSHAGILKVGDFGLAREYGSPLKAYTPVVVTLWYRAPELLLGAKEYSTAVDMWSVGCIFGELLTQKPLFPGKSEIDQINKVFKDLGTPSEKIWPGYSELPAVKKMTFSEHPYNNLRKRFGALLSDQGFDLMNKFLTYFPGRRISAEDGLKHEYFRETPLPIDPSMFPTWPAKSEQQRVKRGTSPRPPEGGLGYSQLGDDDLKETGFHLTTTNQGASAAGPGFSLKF

CCOc1cc(C(=O)N2CCC(N3CCN(C)CC3)CC2)ccc1Nc1ncc2c(n1)N(C1CCCC1)c1ccccc1C(=O)N2C [Compound 26]
% Inhibition PI4KA,PI4KAP2 ([1]; proteome HEL): -4.3% | % Inhibition PI4KA,PI4KAP2 ([1]; proteome PC3): -19.2% | % Inhibition PKCa,PKCb ([1]; PKCa,PKCb, peptide DLk[…], proteome PC3, labeling site Lys2): -2.9% | % Inhibition PKD1,PKD2 ([1]; PKD1,PKD2, peptide NIVHCDLk[…], proteome HEL, labeling site Lys2): 16.4% | % Inhibition ROCK1,ROCK2 ([1]; ROCK1,ROCK2, peptide DVkPDNMLLDK, proteome PC3, labeling site Lys2): -4.8% | % Inhibition RSK1,RSK2 domain1 ([1]; RSK1,RSK2 domain1, peptide DLk[…], proteome HEL, labeling site Lys2): 13.4% | % Inhibition RSK1,RSK4 domain1 ([1]; RSK1,RSK4 domain1, peptide VLGQGSFGkVFLVR, proteome HEL, labeling site ATP Loop): 0.4% | % Inhibition SRPK1,SRPK2 ([1]; SRPK1,SRPK2, peptide FVAMkVVK, proteome PC3, labeling site Lys1): -3.7% | % Inhibition TAO1,TAO3 [1, 14]: -15.8% | % Inhibition TAO1,TAO3 [1, 15]: 1.7% | % Inhibition Wnk1,Wnk2,Wnk3 ([1]; Wnk1,Wnk2,Wnk3, peptide DLk[…], proteome HEL, labeling site Lys2): 1.8% | % Inhibition Wnk1,Wnk2,Wnk4 ([1]; Wnk1,Wnk2,Wnk4, peptide IGDLGLATLkR, proteome PC3, labeling site Activation Loop): -6.2% | % Inhibition ZC1/HGK,ZC2/TNIK,ZC3/MINK [1, 14]: -1.1% | % Inhibition ZC1/HGK,ZC2/TNIK,ZC3/MINK [1, 15]: -12.1% | % Inhibition p70S6K,p70S6Kb ([1]; p70S6K,p70S6Kb, peptide GGYGkVFQVR, proteome PC3, labeling site ATP Loop): -1% | % Inhibiton, MAP3K2,MAP3K3 [1, 16]: -4.4% | % Inhibiton, IKKe,TBK1 [1, 16]: -55% | % Inhibiton, NEK6,NEK7 ([1]; proteome HEL, peptide DIk[…], labeling site Lys2): 6.4% | % Inhibiton, JNK1,JNK2,JNK3 [1, 16]: 14% | % Inhibiton, AMPKa1,AMPKa2 [1, 17]: -22.8% | % Inhibiton, MARK2,MARK3 [1, 17]: -16.8% | % Inhibiton, MAST2,MAST4 [1, 17]: -23.7% | % Inhibiton, p38d,p38g [1, 17]: -11.7% | % Inhibiton, MAP2K1,MAP2K2 [1, 16]: 17.5% | % Inhibiton, MYO3A,MYO3B ([1]; proteome HEL, peptide DVk[…], labeling site Lys2): 11.5% | % Inhibiton, BMX,BTK ([1]; proteome HEL, peptide GQYDVAIkMIK, labeling site Lys1): -22.5% | % Inhibiton, MAP3K5,MAP3K6,MAP3K7 ([1]; proteome HEL, peptide IAIkEIPERDSR, labeling site Lys1): 2% | % Inhibiton, KSR1,KSR2 ([1]; proteome HEL, peptide SkNVFYDNGK, labeling site Protein Kinase Domain): 12.3% | % Inhibiton, AMPKa1,AMPKa2 ([1]; proteome HEL, peptide VAVkILNR, labeling site Lys1): 6% | % Inhibiton, MSK1,MSK2 domain1 ([1]; proteome HEL, peptide VLGTGAYGkVFLVR, labeling site ATP Loop): 7.4% | % Inhibiton, ABL,ARG ([1]; proteome HEL, peptide […]kFPIK, labeling site Activation Loop): -6.4% | % Inhibiton, MAP3K2,MAP3K3 [1, 18]: 5.5% | % Inhibiton, IKKe,TBK1 [1, 18]: -4.6% | % Inhibiton, MST1,MST2 [1, 19]: -5.4% | % Inhibiton, MST4,YSK1 [1, 19]: 0.5% | % Inhibiton, NEK6,NEK7 [1, 19]: -4.6% | % Inhibiton, CaMK2a,CaMK2b,CaMK2d,CaMK2g ([1]; proteome PC3, peptide DLkPENLLLASK, labeling site Lys2): -3.7% | % Inhibiton, JNK1,JNK2,JNK3 [1, 18]: 12.2% | % Inhibiton, AMPKa1,AMPKa2 [1, 20]: 12.1% | % Inhibiton, CDK11,CDK8 [1, 20]: 7.9% | % Inhibiton, MARK2,MARK3 [1, 20]: 3.7% | % Inhibiton, p38d,p38g [1, 20]: 8.3% | % Inhibiton, MAP2K1,MAP2K2 [1, 18]: 7.9% | % Inhibiton, CK1d,CK1e ([1]; proteome PC3, peptide DVk[…], labeling site Lys2): 13% | % Inhibiton, MARK3,MARK4 ([1]; proteome PC3, peptide EVAIkIIDK, labeling site Lys1): 0.6% | % Inhibiton, FYN,SRC,YES ([1]; proteome PC3, peptide QGAk[…], labeling site Activation Loop): 5.5% | % Inhibiton, AMPKa1,AMPKa2 ([1]; proteome PC3, peptide VAVkILNR, labeling site Lys1): 6.9% | % Inhibiton, p38a [2, 17]: -7.3% | % Inhibiton, p38a ([2]; proteome HEL, peptide QELNkTIWEVPER, labeling site Other): 55% | % Inhibiton, p38a [2, 20]: 4.6% | % Inhibiton, p38a ([2]; proteome PC3, peptide QELNkTIWEVPER, labeling site Other): -19% | % Inhibiton, MRCKb ([3]; peptide DIk[…], labeling site Lys2): 1.8% | % Inhibiton, MRCKb ([3]; peptide […]kLPETK, labeling site Other): 9.2% | % Inhibiton, MARK2 [4]: 16.8% | % Inhibiton, LOK [5, 17]: -13% | % Inhibiton, LOK ([5]; proteome HEL, peptide […]kVIETK, labeling site Lys1): 24.4% | % Inhibiton, LOK [5, 20]: 11.4% | % Inhibiton, LOK ([5]; proteome PC3, peptide […]kVIETK, labeling site Lys1): 10% | % Inhibiton, JAK3 domain2 [6]: ~53.9% | % Inhibition PRPK ([7]; proteome HEL): 9.6% | % Inhibition PRPK ([7]; proteome PC3): -5.6% | % Inhibiton, MST1 ([8]; proteome HEL): 15.9% | % Inhibiton, MST1 ([8]; proteome PC3): -17.2% | % Inhibiton, MASTL [9]: 5.9% | % Inhibiton, LYN [10]: 26.5% | % Inhibiton, CaMK2g ([11]; proteome HEL): 7.3% | % Inhibiton, CaMK2g ([11]; proteome PC3): -4.7% | % Inhibition PITSLRE [12]: 3.5% | % Inhibition Wee1 [13]: 2.9%
